Measurements: US20250304620A1, “ANTIMICROBIAL PEPTIDE AND APPLICATION THEREOF” (priority 2023, published 2025)
Converted amounts (≈) assume the structure as drawn. Non-standard residues stand in square brackets, D forms with d. Residues, ends and D or L forms follow the SMILES beside them. dPhe(3,4-F2) = N[C@H](Cc1ccc(F)c(F)c1)C(=O)O; dPhe(4-Br) = N[C@H](Cc1ccc(Br)cc1)C(=O)O; dPhe(4-F) = N[C@H](Cc1ccc(F)cc1)C(=O)O; d2Nal = N[C@H](Cc1ccc2ccccc2c1)C(=O)O; d(hLeu) = CC(C)CC[C@@H](N)C(=O)O

What was measured:
[1] = test system: vancomycin-resistant Enterococcus (VRE); format: cell-based
Source text: (§1) According to the Standards of Clinical and Laboratory Standards Institute (CLSI) of the USA for antimicrobial drug susceptibility test operation standards, the micronutrient serial twofold dilution method was used further determine MICs of the antimicrobial peptides LV-1 to LV-30 against 5 clinically common drug-resistant bacterial strains. The experiment was repeated 5 times in parallel. […] The tested drug-resistant strains included Methicillin-resistant Staphylococcus aureus (MRSA), carbapenem-resistant Escherichia coli (CREC), vancomycin-resistant Enterococcus (VRE), carbapenem-resistant Pseudomonas aeruginosa (CRPA), and carbapenem-resistant Klebsiella pneumoniae (CRKP).

[2] = test system: carbapenem-resistant Escherichia coli (CREC); format: cell-based; conditions: carbapenem-resistant (CREC)
Source text: as §1

[3] = test system: carbapenem-resistant Pseudomonas aeruginosa (CRPA); format: cell-based; conditions: carbapenem-resistant (CRPA)
Source text: as §1

[4] = test system: Methicillin-resistant Staphylococcus aureus (MRSA); format: cell-based; conditions: Methicillin-resistant
Source text: as §1

[5] = test system: carbapenem-resistant Klebsiella pneumoniae (CRKP); format: cell-based; conditions: carbapenem-resistant (CRKP)
Source text: as §1

[6] = test system: rabbit red blood cells; format: cell-based; conditions: red cells of rabbit, 1 h
[7] = Serum stability assay (residual level by RP-HPLC); conditions: human
[8] = test system: Shigella flexneri ATCC 12022; assay: MIC against clinically common bacterial strain; format: cell-based
Source text: According to the Standards of Clinical and Laboratory Standards Institute (CLSI) of the USA for antimicrobial drug susceptibility test operation standards, the micronutrient serial twofold dilution method was used further determine MICs of 30 AMPs (S/N: LV-1 to LV-30) 10 clinically common sensitive strains and 6 fungi in clinical practice. The experiment was repeated 5 times in parallel.

Structure (SMILES) | MIC VRE [1] | MIC CREC [2] | MIC CRPA [3] | MIC MRSA [4] | MIC CRKP [5] | MHC (minimum hemolytic concentration, lowest concentration causing 10% hemolysis) [6] | remaining at 12 h, 0.91 mg/mL [7] | MIC Shigella flexneri ATCC 12022 [8]
CC(=O)N[C@H](CCCNC(=N)N)C(=O)N[C@H](CCCCN)C(=O)N[C@H](CC(C)C)C(=O)N[C@H](CC(C)C)C(=O)N[C@H](Cc1ccccc1)C(=O)N[C@H](CCCNC(=N)N)C(=O)N[C@H](CC(C)C)C(=O)N[C@H](CCCCN)C(=O)N[C@H](Cc1ccccc1)C(=O)N[C@H](CCCNC(=N)N)C(=O)N[C@H](CCCCN)C(N)=O [LV-2] (Ac-[dR][dK][dL][dL][dF][dR][dL][dK][dF][dR][dK]-NH2) | 2 µg/mL (≈ 1.29 µM) | 4 µg/mL (≈ 2.59 µM) | 8 µg/mL (≈ 5.17 µM) | 2 µg/mL (≈ 1.29 µM) | 2 µg/mL (≈ 1.29 µM) | >1000 µg/mL | 97.4% | 2 µg/mL (≈ 1.29 µM)
CC(=O)N[C@H](CCCNC(=N)N)C(=O)N[C@H](CCCCN)C(=O)N[C@H](CCC(C)C)C(=O)N[C@H](CCC(C)C)C(=O)N[C@H](Cc1ccc2ccccc2c1)C(=O)N[C@H](CCCNC(=N)N)C(=O)N[C@H](CCC(C)C)C(=O)N[C@H](CCCCN)C(=O)N[C@H](Cc1ccc2ccccc2c1)C(=O)N[C@H](CCCNC(=N)N)C(=O)N[C@H](CCCCN)C(N)=O [LV-14] (Ac-[dR][dK][d(hLeu)][d(hLeu)][d2Nal][dR][d(hLeu)][dK][d2Nal][dR][dK]-NH2) | 4 µg/mL (≈ 2.37 µM) | 8 µg/mL (≈ 4.74 µM) | 8 µg/mL (≈ 4.74 µM) | 4 µg/mL (≈ 2.37 µM) | 4 µg/mL (≈ 2.37 µM) | >1000 µg/mL | 97.1% | 4 µg/mL (≈ 2.37 µM)
CC(=O)N[C@H](CCCCN)C(=O)N[C@H](CCCNC(=N)N)C(=O)N[C@H](CC(C)C)C(=O)N[C@H](CC(C)C)C(=O)N[C@H](Cc1ccc2ccccc2c1)C(=O)N[C@H](CCCCN)C(=O)N[C@H](CC(C)C)C(=O)N[C@H](CCCCN)C(=O)N[C@H](Cc1ccc2ccccc2c1)C(=O)N[C@H](CCCCN)C(=O)N[C@H](CCCNC(=N)N)C(N)=O [LV-23] (Ac-[dK][dR][dL][dL][d2Nal][dK][dL][dK][d2Nal][dK][dR]-NH2) | 4 µg/mL (≈ 2.47 µM) | 2 µg/mL (≈ 1.24 µM) | 4 µg/mL (≈ 2.47 µM) | 4 µg/mL (≈ 2.47 µM) | 8 µg/mL (≈ 4.94 µM) | >1000 µg/mL | 97.5% | 2 µg/mL (≈ 1.24 µM)
CC(=O)N[C@H](CCCNC(=N)N)C(=O)N[C@H](CCCCN)C(=O)N[C@H](CC(C)C)C(=O)N[C@H](CC(C)C)C(=O)N[C@H](Cc1ccc(F)cc1)C(=O)N[C@H](CCCCN)C(=O)N[C@H](CC(C)C)C(=O)N[C@H](CCCCN)C(=O)N[C@H](Cc1ccc(F)cc1)C(=O)N[C@H](CCCCN)C(=O)N[C@H](CCCNC(=N)N)C(N)=O [LV-5] (Ac-[dR][dK][dL][dL][dPhe(4-F)][dK][dL][dK][dPhe(4-F)][dK][dR]-NH2) | 8 µg/mL (≈ 5.15 µM) | 8 µg/mL (≈ 5.15 µM) | 4 µg/mL (≈ 2.57 µM) | 4 µg/mL (≈ 2.57 µM) | 4 µg/mL (≈ 2.57 µM) | >1000 µg/mL | 98.2% | 2 µg/mL (≈ 1.29 µM)
CC(=O)N[C@H](CCCNC(=N)N)C(=O)N[C@H](CCCCN)C(=O)N[C@H](CC(C)C)C(=O)N[C@H](CC(C)C)C(=O)N[C@H](Cc1ccccc1)C(=O)N[C@H](CCCNC(=N)N)C(=O)N[C@H](CC(C)C)C(=O)N[C@H](CCCCN)C(=O)N[C@H](Cc1ccc2ccccc2c1)C(=O)N[C@H](CCCNC(=N)N)C(=O)N[C@H](CCCCN)C(N)=O [LV-3] (Ac-[dR][dK][dL][dL][dF][dR][dL][dK][d2Nal][dR][dK]-NH2) | 8 µg/mL (≈ 5.01 µM) | 4 µg/mL (≈ 2.51 µM) | 8 µg/mL (≈ 5.01 µM) | 2 µg/mL (≈ 1.25 µM) | 4 µg/mL (≈ 2.51 µM) | >1000 µg/mL | 98.7% | 2 µg/mL (≈ 1.25 µM)
CC(=O)N[C@H](CCCCN)C(=O)N[C@H](CCCCN)C(=O)N[C@H](CC(C)C)C(=O)N[C@H](CC(C)C)C(=O)N[C@H](Cc1ccc(Br)cc1)C(=O)N[C@H](CCCNC(=N)N)C(=O)N[C@H](CC(C)C)C(=O)N[C@H](CCCCN)C(=O)N[C@H](Cc1ccc(Br)cc1)C(=O)N[C@H](CCCNC(=N)N)C(=O)N[C@H](CCCCN)C(N)=O [LV-10] (Ac-[dK][dK][dL][dL][dPhe(4-Br)][dR][dL][dK][dPhe(4-Br)][dR][dK]-NH2) | 8 µg/mL (≈ 4.77 µM) | 4 µg/mL (≈ 2.39 µM) | 2 µg/mL (≈ 1.19 µM) | 4 µg/mL (≈ 2.39 µM) | 2 µg/mL (≈ 1.19 µM) | >1000 µg/mL | 98% | 2 µg/mL (≈ 1.19 µM)
CC(=O)N[C@H](CCCNC(=N)N)C(=O)N[C@H](CCCCN)C(=O)N[C@H](CC(C)C)C(=O)N[C@H](CC(C)C)C(=O)N[C@H](Cc1ccc2ccccc2c1)C(=O)N[C@H](CCCNC(=N)N)C(=O)N[C@H](CC(C)C)C(=O)N[C@H](CCCCN)C(=O)N[C@H](Cc1ccc2ccccc2c1)C(=O)N[C@H](CCCNC(=N)N)C(=O)N[C@H](CCCCN)C(N)=O [LV-20] (Ac-[dR][dK][dL][dL][d2Nal][dR][dL][dK][d2Nal][dR][dK]-NH2) | 4 µg/mL (≈ 2.43 µM) | 8 µg/mL (≈ 4.86 µM) | 4 µg/mL (≈ 2.43 µM) | 2 µg/mL (≈ 1.21 µM) | 8 µg/mL (≈ 4.86 µM) | >1000 µg/mL | 98.2% | 4 µg/mL (≈ 2.43 µM)
CC(=O)N[C@H](CCCNC(=N)N)C(=O)N[C@H](CCCNC(=N)N)C(=O)N[C@H](CC(C)C)C(=O)N[C@H](CC(C)C)C(=O)N[C@H](Cc1ccc2ccccc2c1)C(=O)N[C@H](CCCNC(=N)N)C(=O)N[C@H](CC(C)C)C(=O)N[C@H](CCCCN)C(=O)N[C@H](Cc1ccc2ccccc2c1)C(=O)N[C@H](CCCNC(=N)N)C(=O)N[C@H](CCCCN)C(N)=O [LV-21] (Ac-[dR][dR][dL][dL][d2Nal][dR][dL][dK][d2Nal][dR][dK]-NH2) | 2 µg/mL (≈ 1.19 µM) | 2 µg/mL (≈ 1.19 µM) | 4 µg/mL (≈ 2.39 µM) | 4 µg/mL (≈ 2.39 µM) | 2 µg/mL (≈ 1.19 µM) | >1000 µg/mL | 97.9% | 2 µg/mL (≈ 1.19 µM)
CC(=O)N[C@H](CCCNC(=N)N)C(=O)N[C@H](CCCCN)C(=O)N[C@H](CC(C)C)C(=O)N[C@H](CC(C)C)C(=O)N[C@H](Cc1ccc(F)c(F)c1)C(=O)N[C@H](CCCCN)C(=O)N[C@H](CC(C)C)C(=O)N[C@H](CCCCN)C(=O)N[C@H](Cc1ccc(F)c(F)c1)C(=O)N[C@H](CCCCN)C(=O)N[C@H](CCCNC(=N)N)C(N)=O [LV-6] (Ac-[dR][dK][dL][dL][dPhe(3,4-F2)][dK][dL][dK][dPhe(3,4-F2)][dK][dR]-NH2) | 2 µg/mL (≈ 1.26 µM) | 2 µg/mL (≈ 1.26 µM) | 8 µg/mL (≈ 5.03 µM) | 4 µg/mL (≈ 2.52 µM) | 8 µg/mL (≈ 5.03 µM) | >1000 µg/mL | 98% | 4 µg/mL (≈ 2.52 µM)
